Results: a melting point compilation (Tetko et al.; mined from patent text by program, amines drawn as free bases though some values may be those of a salt)

Row | melting point | SMILES
1 | 91 to 92 °C | COC(=O)C1(C)c2ccccc2Oc2ccccc21
2 | 262 °C | O=c1[nH]c2cc(Cl)ccc2cc1-c1ccc(O)cc1
3 | 101 to 103 °C | CNc1cc(C(F)(F)F)cc(N(CCN(C)C)C(=O)N(C)C)n1
4 | 176 to 178 °C | CCCC(=O)c1c[nH]c2c(F)cccc2c1=O
5 | 86 to 87 °C | CCOC(=O)C(CC)Cc1ccc(N2C(=O)c3ccccc3C2=O)cc1 (stereo unspecified)
6 | 254 to 256 °C | CC(=O)NNC(=O)c1cc2cccc(NS(=O)(=O)c3cccs3)c2[nH]1
7 | 52 °C | Cc1c(F)c(F)nc(-c2ccc(C(F)(F)F)cc2)c1F
8 | 120 to 147 °C | Cc1ccc(C=CC(=O)C(CCC(=O)O)(Cc2ccccc2Cl)c2ccccc2)cc1 (stereo unspecified)
9 | 112 to 115 °C | Oc1ccc2c(c1)CC(O)C2 (stereo unspecified)
10 | 196 to 197 °C | CCOP(=O)(CNC(=O)OC(c1ccccc1)c1cc(C(C)(C)C)c(O)c(C(C)(C)C)c1)OCC (stereo unspecified)
11 | 220 to 221 °C | Clc1ccc2cc3ccccc3cc2c1
12 | 180 °C | O=C1NC(=Cc2ccc(Cl)cc2Cl)C(=O)C1=NO
13 | 103 °C | Cc1ccc(S(=O)(=O)N2CCCC2c2ccc(Cl)c(C)c2)cc1 (racemic)
14 | 89 to 91 °C | Cc1cc(-c2noc(C(F)(F)F)n2)cc(C)c1OCCCc1ccc(Cl)nc1
15 | 181 to 183 °C | CN1CN(C2CCCC2)CN(c2nc3c(s2)C(=O)CC(C)(C)C3)C1=O
16 | 119 to 122 °C | CCOCCCN(C)Cc1ccc(NC(=O)C2=Cc3cc(-c4ccc(C)cc4)ccc3OCC2)cc1
17 | 291 to 293 °C | Cc1ccc(N2C(=O)NC(=O)C23CCN(Cc2ccccc2)CC3)cc1
18 | 78 to 79 °C | O=C(c1ccc(Cl)cc1)c1ccc(SC(F)(F)F)cc1
19 | 157 to 159 °C | CC[C@H]1COC(=O)N1c1nc(-c2ccc(C#N)cc2)c(Cl)s1

Row | melting point | SMILES
20 | 158 to 159 °C | CNc1nc(-c2ccc(OC)cc2)c(-c2cccnc2)s1
21 | 228 to 233 °C | C/C=C/C[C@@H](C)[C@@H](O)[C@H](NC)C(=O)O
22 | 101 to 102 °C | O=C(/C=C/[C@@H]1[C@H]2CC(=O)O[C@H]2C[C@H]1OC(=O)c1ccccc1)COc1cccc(Cl)c1
23 | 161 to 162 °C | CCOC(=O)c1sc2nc(C(C)C)ccc2c1N
24 | 142 to 144 °C | CCOC(=O)C1=C(C)NC(COCCN2C(=O)c3ccccc3C2=O)=C(C(=O)OCC)C1c1ccccc1Cl (stereo unspecified)
25 | 176 to 183 °C | COC(=O)c1ccc(-c2ccc3c(c2)C=C(C(=O)Nc2ccc(CN(C)C4CCOCC4)cc2)CCC3)cc1
26 | 106 to 108 °C | CN(C)c1ccncc1CCCOc1ccc(OCCCC(=O)O)cc1
27 | 212 to 214 °C | NC(=O)c1ccc(-c2ccc3ncn(Cc4ccc5ncccc5c4)c3n2)cc1Cl
28 | 60 to 72 °C | CCCCNc1c(CO)cnc2c1cnn2CC
29 | > 300 °C | O=C(O)c1ccc(-c2cc(-c3ccccc3)no2)cc1
30 | 64 °C | CCS(=O)(=O)OC(c1cccc(C(O)(C(F)(F)F)C(F)(F)F)c1)(C(F)(F)F)C(F)(F)F
31 | 104 to 107 °C | C=C(C)CSc1ccccc1S(=O)(=O)NC(C)(C)C
32 | 100 °C | OC1CSC(Oc2ccc(-c3cncnc3)nc2Cl)C(O)C1O (stereo unspecified)
33 | 148 to 149 °C | COc1ccc(CCOc2cc(-c3cccc(C(=O)O)c3)ccn2)cc1OC
34 | 183 to 185 °C | CC(C)(C)CC(C)(C)c1ccc(Oc2cc3nc(-c4ccccc4)oc3cc2[N+](=O)[O-])cc1
35 | 85 to 87 °C | CN1CC(CN)c2c[nH]c3cccc(c23)C1=O (stereo unspecified)
36 | 88 to 90 °C | CC(C)(NC(=O)C(COCc1ccccc1)NC(=O)c1ccccc1)c1ccccc1 (stereo unspecified)
37 | > 250 °C | CC(C)(C)c1cc(C(=O)NCC(=O)Nc2ccc(N=C(N)c3cccs3)cc2)cc(C(C)(C)C)c1O

Continued, compound first:

Row | SMILES | melting point
38 | Cn1nc(C(=O)Nc2ccc(OCC(C)(C)C)c(C#N)c2)cc1-c1ccccc1 | 156 to 157 °C
39 | CN(c1ccc(Cl)c2cc(C(N)=O)[nH]c12)S(=O)(=O)c1cccs1 | 252 to 254 °C
40 | O=C(Nc1ccc(C(=O)NCCCN2CCOCC2)cc1O)C(=O)Nc1cc(Cl)cc(Cl)c1O | 227 °C
41 | CCOC(=O)Cn1c(C(=O)NCc2nnc3n2-c2sc(CC)cc2C(c2ccccc2Cl)=NC3)cc2ccccc21 | 215 to 217 °C
42 | COc1cc(/C=C/[N+](=O)[O-])cc(OC)c1 | 132 °C
43 | Cc1csc(-c2ccc3c(c2)c2cc(-c4ccc(Cl)cc4Cl)c(=O)n(C)c2n3C)n1 | 255 to 257 °C
44 | CCCCc1nc2c(N)nc3c(c2n1CCCCN)CCCC3 | 63 to 67 °C
45 | COC(=O)c1nnc(NC(=O)CCCOc2cccc(CN3CCCCC3)c2)n1C | 108 to 110 °C
46 | CC(C)(C)c1cc(C(=O)CCl)ccc1Cl | 159 °C
47 | COc1ccc(Cl)cc1CNc1nc(Cl)nc2c1ncn2[C@@H]1SC[C@@H](O)[C@H]1O | 189 to 190 °C
48 | Cc1nc2c(O[C@@H]3c4ccccc4C[C@H]3O)cc(Cl)cn2c1N (relative stereo) | 223 to 225 °C
49 | C=Cc1ccnc2c([N+](=O)[O-])cccc12 | 134 °C
50 | CNC(=O)N(C=O)c1cccc(C)c1 | 112 to 113 °C
51 | c1ccc(CN2CCC(COc3ccccc3)CC2)cc1 | 56 to 57 °C
52 | O=c1c2c(CC3CCCCC3)n[nH]c2c2cccnc2n1-c1ccccc1 | 280 to 281 °C
53 | CCOC(=O)c1c(OC)nc2c(C)cc(C)cc2c1-c1ccccc1Cl | 135 to 136 °C
54 | CC1(OCc2ccccc2Cl)COC(CCl)OC1 (stereo unspecified) | 53 to 54 °C
55 | Cc1cccc(C)c1Sc1cc(C(C)(C)C)cc(C(C)(C)C)c1O | 101 to 102 °C
56 | CNC1(c2ccc(C#CC(=O)Nc3ccc(-c4ccc(Cl)cc4)cc3)cc2)CC1 | 217 °C
57 | COc1ccc2c(c1)OC(=O)N(C1CCCCC1)C2 | 76 to 77 °C
58 | Nc1ccn([C@@H]2C[C@H](CO)[C@@H](O)[C@H]2O)c(=O)n1 | 214 °C
59 | NS(=O)(=O)c1cc(C(=O)c2csc3ccccc23)ccc1Cl | 154 to 156 °C

Row | SMILES | melting point
60 | CN(C)c1ccc(Pc2ccc(N(C)C)cc2)cc1 | 80 to 90 °C
61 | CC(=O)c1ccc(OC(C)CCCCC(=O)O)cc1O (stereo unspecified) | 116 to 118 °C
62 | CCCC(OC)(C(=O)n1ccnc1)c1ccc(Cl)cc1Cl (stereo unspecified) | 99 to 101 °C
63 | COc1cc2ncc(C#N)c(Nc3cccc(CO)c3C)c2cc1OC | 123 to 125 °C
64 | O=S(=O)(N=CN1CCOCC1)c1nc(-c2ccccc2)ns1 | 185 to 187 °C
65 | CC(CO)Oc1ccc(CNc2ccc(Cl)cc2)cc1 (stereo unspecified) | 81 to 83 °C
66 | CC(c1ccc(F)cc1)N1CCN(c2cc(Oc3cccc4c(=O)[nH]ccc34)ncn2)CC1 (stereo unspecified) | 249 °C
67 | CCOCc1nc2c(N)nc3ccccc3c2n1NCCC(C)C | 129 to 132 °C
68 | C=C1C(=C)C2C(CCC3(C)C2CCC3(O)C(C)=O)C2(C)CCC(=O)C=C12 (stereo unspecified) | 274 to 276 °C
69 | CCc1nnc2c(NC3CCC3)nc3ccccc3n12 | 215 to 217 °C
70 | CCCCOC(=O)c1c(-c2ccncc2)[nH]c(-c2ccncc2)c1C | 182 to 186 °C
71 | CSc1ccc(CN2C(=O)C3(COc4cc5c(cc43)OCO5)c3ccccc32)cc1 (stereo unspecified) | 128 to 130 °C
72 | CN(C)c1cc(Oc2cccc(C(F)(F)F)c2)nc(C(=O)O)c1 | 61 to 66 °C
73 | CCC(C(C)=CC(CNC(=O)c1nc(C)[nH]c1C)=NO)[N+](=O)[O-] (stereo unspecified) | 140 to 141 °C
74 | O=C(O)Cc1ccc(-n2cccn2)c(Br)c1 | 100 to 101 °C
75 | O=C(O)CNC(=O)C(CSC(=O)c1ccccc1)SC(=O)c1ccccc1 (stereo unspecified) | 160 to 163 °C
76 | CNC(=O)N1CCC(c2nn(-c3ccccc3)c3cc(F)ccc23)CC1 | 163 to 165 °C
77 | CCc1cc2c(s1)-n1nc(C(N)=O)nc1C(OC)N=C2c1ccccc1Cl (stereo unspecified) | 200 to 201 °C
78 | CCOC(=O)c1cc2cc(F)c(F)cc2nc1Cl | 108 °C
79 | CN1C(=O)C(NC(=O)NC2CCCCC2)N=C(c2ccccc2)c2ccccc21 (stereo unspecified) | 287 to 288 °C
80 | Nc1nsnc1-c1ccc(Cl)cc1 | 132 to 133 °C
81 | CCCCc1n[nH]c(CCCC)n1 | 50.5 to 51.5 °C

Row | SMILES | melting point
82 | CC1(C)CC(=O)C2=C(C1)NC1=C(C(=O)CC(C)(C)C1)C2c1ccc(OC(F)(F)F)cc1 | 234 °C
83 | CC(Oc1ccc(-c2ccc(S(N)(=O)=O)cc2)cc1)C(O)CCc1cccnc1 (stereo unspecified) | 222 to 223 °C
84 | c1ccc(-c2cc3nnc(-c4ccccc4)n3nc2OCc2cn[nH]n2)cc1 | 208 to 220 °C
85 | Cc1cc(-c2ccc(-c3ccco3)cc2)n(-c2ccc(S(N)(=O)=O)cc2)c1 | 153 to 155 °C
86 | CCOC(=O)c1cc(C#N)c(C)nc1NC(C)CC (stereo unspecified) | 55 to 57 °C
87 | Cc1cc(C)c(CC(=O)N(C)CC(=O)O)c(C)c1 | 140 °C
88 | CCCCc1nc2c(N)nc3cccnc3c2n1CCNC(=O)c1cc(C(C)(C)C)c(O)c(C(C)(C)C)c1 | 248 to 250 °C
89 | NS(=O)(=O)c1cc(C(=O)OCC(=O)N[C@@H](CCO[N+](=O)[O-])CO[N+](=O)[O-])c(NCc2ccco2)cc1Cl | 93 to 95 °C
90 | NCCOc1cc(Cl)cc([N+](=O)[O-])c1N | 156 to 157 °C
91 | Cc1nnc(-c2ccccc2F)n2nc(OCc3ncn(C)n3)c(-c3ccsc3)c12 | 214 to 217 °C
92 | COc1ccc(-c2cc(=S)n(Cc3ccc(F)cc3)nc2-c2ccc(OC)cc2)cc1 | 137 to 138 °C
93 | CCOC(=O)COc1ccc(C=O)cc1 | 39 °C
94 | O=c1c2c(Cl)cccc2nc2sc(Br)cn12 | 174 to 178 °C
95 | CC(C)(C)OC(=O)N1CCC(Oc2cccc3[nH]ccc23)C1 (stereo unspecified) | 164 to 165 °C
96 | NC(=O)CNC(=O)c1cccc(-c2cccc3sc(Cc4ccc(F)c(F)c4)cc23)c1 | 160 to 161 °C
97 | CCCC(=O)c1cnc2c(OCC)nccc2c1OS(C)(=O)=O | 115 to 116 °C
98 | Cn1ncc(/C=C/C(=O)O)c1-c1ccoc1 | 218 to 219 °C
99 | CC(C)OC(=O)C1=C(c2ccccc2)C(c2ccccc2)OC1=O (stereo unspecified) | 120 to 122 °C
100 | FC(F)(F)c1cccc(CSc2nnc(-c3ccc4c(c3)CCO4)o2)c1 | 88 to 90 °C
101 | CCOc1nc(C(F)(F)F)cc(=O)n1-c1cc(OC)c(Br)cc1F | 126 to 128 °C
